Reference: PubChem BioAssay AID248 (DTP/NCI, 2004)
Where “and” joins values, the source holds several entries; their conditions need not be identical. Equal entries are not always repeated. Toxic doses and inconclusive results are not listed.

Test system: L1210 leukemia ip in BDF1 mice, survival T/C
Experiment: NCI In Vivo Anticancer Drug Screen. Data for tumor model L1210 Leukemia (intraperitoneal) in B6D2F1 (BDF1) mice
Conditions: endpoint: mean survival time, higher = longer survival
Outline: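 Survival endpoint. Drug-treated group vs vehicle group, expressed as T divided by C. Tumor passaged by transplantation.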

O=C(Nc1ccc(NC2=NCCN2)cc1)c1ccc(C(=O)Nc2ccc(NC3=NCCN3)cc2)cc1
T/C (dose: 0.25 mg/kg/injection, schedule: Q01DX001 (ip), vehicle: saline): 109 % of control
T/C (dose: 0.3 mg/kg/injection, schedule: Q#A X Z (ip), vehicle: saline): 116 % of control
T/C (dose: 0.45 mg/kg/injection, schedule: Q#A X Z (ip), vehicle: saline): 122 % of control
T/C (dose: 0.5 mg/kg/injection, schedule: Q01DX001 (ip), vehicle: saline): 110 % of control
T/C (dose: 0.5 mg/kg/injection, schedule: Q07DX Z (ip), vehicle: saline): 97 % of control
T/C (dose: 0.63 mg/kg/injection, schedule: Q02DX004 (im), vehicle: saline): 104 % of control
T/C (dose: 0.9 mg/kg/injection, schedule: Q01DX Z (ip), vehicle: methylcellulose (MC)): 104 % of control
T/C (dose: 0.94 mg/kg/injection, schedule: Q01DX Z (ip), vehicle: saline): 103 % of control
T/C (dose: 1.0 mg/kg/injection, schedule: Q01DX001 (ip), vehicle: saline): 109 % of control
T/C (dose: 1.0 mg/kg/injection, schedule: Q07DX Z (ip), vehicle: saline): 106 % of control
T/C (dose: 1.0 mg/kg/injection, schedule: Q#A X Z (ip), vehicle: saline): 180 % of control
T/C (dose: 1.25 mg/kg/injection, schedule: Q01DX Z (ip), vehicle: methylcellulose (MC)): 109 % of control
T/C (dose: 1.25 mg/kg/injection, schedule: Q02DX004 (im), vehicle: saline): 101 % of control
T/C (dose: 1.3 mg/kg/injection, schedule: Q01DX Z (ip), vehicle: saline): 120 % of control
T/C (dose: 1.3 mg/kg/injection, schedule: Q01DX Z (sc), vehicle: saline): 93 % of control
T/C (dose: 1.5 mg/kg/injection, schedule: Q#A X Z (ip), vehicle: saline): 191 % of control
T/C (dose: 1.8 mg/kg/injection, schedule: Q01DX Z (ip), vehicle: methylcellulose (MC)): 116 % of control
T/C (dose: 1.88 mg/kg/injection, schedule: Q01DX Z (ip), vehicle: saline): 200 % of control
T/C (dose: 2.0 mg/kg/injection, schedule: Q01DX001 (ip), vehicle: saline): 113 % of control
T/C (dose: 2.0 mg/kg/injection, schedule: Q01DX Z (ip), vehicle: saline): 177 % of control
T/C (dose: 2.0 mg/kg/injection, schedule: Q01DX Z (sc), vehicle: saline): 101 % of control
T/C (dose: 2.0 mg/kg/injection, schedule: Q07DX Z (ip), vehicle: saline): 103 % of control
T/C (dose: 2.5 mg/kg/injection, schedule: Q01DX Z (ip), vehicle: methylcellulose (MC)): 150 % of control
T/C (dose: 2.5 mg/kg/injection, schedule: Q02DX004 (im), vehicle: saline): 108 % of control
T/C (dose: 3.0 mg/kg/injection, schedule: Q01DX Z (ip), vehicle: saline): 239 % of control
T/C (dose: 3.0 mg/kg/injection, schedule: Q01DX Z (sc), vehicle: saline): 113 % of control
T/C (dose: 3.75 mg/kg/injection, schedule: Q01DX Z (ip), vehicle: saline): 264 % of control
T/C (dose: 4.0 mg/kg/injection, schedule: Q01DX001 (ip), vehicle: saline): 121 % of control
T/C (dose: 4.0 mg/kg/injection, schedule: Q03DX Z (ip), vehicle: saline): 121 % of control
T/C (dose: 5.0 mg/kg/injection, schedule: Q01DX Z (ip), vehicle: methylcellulose (MC)): 293 % of control
T/C (dose: 5.0 mg/kg/injection, schedule: Q02DX004 (im), vehicle: saline): 106 % of control
T/C (dose: 6.0 mg/kg/injection, schedule: Q03DX Z (ip), vehicle: saline): 161 % of control
T/C (dose: 6.0 mg/kg/injection, schedule: Q07DX Z (ip), vehicle: saline): 198 % of control
T/C (dose: 7.5 mg/kg/injection, schedule: Q01DX Z (ip), vehicle: methylcellulose (MC)): 268 % of control
T/C (dose: 7.5 mg/kg/injection, schedule: Q01DX Z (ip), vehicle: saline): 265 % of control
T/C (dose: 8.0 mg/kg/injection, schedule: Q#A X Z (ip), vehicle: saline): 110 % of control
T/C (dose: 9.0 mg/kg/injection, schedule: Q07DX Z (ip), vehicle: saline): 154 % of control and 193 % of control
T/C (dose: 10.0 mg/kg/injection, schedule: Q01DX001 (im), vehicle: steriod suspending solution): 103 % of control
T/C (dose: 10.0 mg/kg/injection, schedule: Q01DX010 (sc), vehicle: olive oil, sesame oil, peanut oil): 101 % of control and 118 % of control
T/C (dose: 10.0 mg/kg/injection, schedule: Q01DX Z (ip), vehicle: methylcellulose (MC)): 200 % of control
T/C (dose: 10.0 mg/kg/injection, schedule: Q02DX004 (im), vehicle: olive oil, sesame oil, peanut oil): 153 % of control
T/C (dose: 12.0 mg/kg/injection, schedule: Q#A X Z (ip), vehicle: saline): 112 % of control
T/C (dose: 14.0 mg/kg/injection, schedule: Q07DX Z (ip), vehicle: saline): 152 % of control
T/C (dose: 15.0 mg/kg/injection, schedule: Q01DX Z (ip), vehicle: methylcellulose (MC)): 184 % of control
T/C (dose: 15.0 mg/kg/injection, schedule: Q01DX Z (ip), vehicle: saline): 161 % of control
T/C (dose: 16.0 mg/kg/injection, schedule: Q01DX001 (ip), vehicle: saline): 155 % of control
T/C (dose: 16.0 mg/kg/injection, schedule: Q01DX Z (sc), vehicle: saline): 152 % of control
T/C (dose: 18.0 mg/kg/injection, schedule: Q01DX001 (ip), vehicle: other): 172 % of control
T/C (dose: 18.0 mg/kg/injection, schedule: Q#A X Z (ip), vehicle: saline): 109 % of control
T/C (dose: 20.0 mg/kg/injection, schedule: Q01DX010 (sc), vehicle: olive oil, sesame oil, peanut oil): 87 % of control
T/C (dose: 20.0 mg/kg/injection, schedule: Q02DX004 (im), vehicle: olive oil, sesame oil, peanut oil): 175 % of control and 196 % of control
T/C (dose: 21.0 mg/kg/injection, schedule: Q07DX Z (ip), vehicle: saline): 184 % of control
T/C (dose: 24.0 mg/kg/injection, schedule: Q01DX007 (iv), vehicle: saline): 174 % of control
T/C (dose: 24.0 mg/kg/injection, schedule: Q01DX Z (ip), vehicle: saline): 120 % of control
T/C (dose: 24.0 mg/kg/injection, schedule: Q01DX Z (sc), vehicle: saline): 113 % of control
T/C (dose: 26.0 mg/kg/injection, schedule: Q01DX001 (ip), vehicle: carboxymethylcellulose (CMC)): 210 % of control
T/C (dose: 26.0 mg/kg/injection, schedule: Q01DX001 (ip), vehicle: other): 154 % of control and 200 % of control
T/C (dose: 30.0 mg/kg/injection, schedule: Q01DX Z (ip), vehicle: saline): 114 % of control
T/C (dose: 36.0 mg/kg/injection, schedule: Q01DX007 (iv), vehicle: saline): 210 % of control
T/C (dose: 36.0 mg/kg/injection, schedule: Q01DX Z (ip), vehicle: saline): 96 % of control
T/C (dose: 40.0 mg/kg/injection, schedule: Q01DX001 (im), vehicle: steriod suspending solution): 176 % of control
T/C (dose: 40.0 mg/kg/injection, schedule: Q01DX001 (ip), vehicle: carboxymethylcellulose (CMC)): 194 % of control and 206 % of control
T/C (dose: 40.0 mg/kg/injection, schedule: Q01DX001 (ip), vehicle: other): 198 % of control and 201 % of control
T/C (dose: 40.0 mg/kg/injection, schedule: Q02DX004 (im), vehicle: olive oil, sesame oil, peanut oil): 109 % of control and 110 % of control
T/C (dose: 54.0 mg/kg/injection, schedule: Q01DX007 (iv), vehicle: saline): 233 % of control
T/C (dose: 60.0 mg/kg/injection, schedule: Q01DX001 (ip), vehicle: carboxymethylcellulose (CMC)): 251 % of control and 296 % of control
T/C (dose: 60.0 mg/kg/injection, schedule: Q01DX001 (ip), vehicle: other): 224 % of control and 297 % of control
T/C (dose: 60.0 mg/kg/injection, schedule: Q01DX Z (ip), vehicle: saline): 103 % of control
T/C (dose: 64.0 mg/kg/injection, schedule: Q01DX010 (oral), vehicle: saline): 108 % of control
T/C (dose: 72.0 mg/kg/injection, schedule: Q01DX001 (ip), vehicle: saline): 215 % of control and 232 % of control and 264 % of control
T/C (dose: 75.0 mg/kg/injection, schedule: Q01DX Z (oral), vehicle: saline): 95 % of control
T/C (dose: 80.0 mg/kg/injection, schedule: Q01DX001 (im), vehicle: saline): 213 % of control
T/C (dose: 80.0 mg/kg/injection, schedule: Q01DX001 (im), vehicle: steriod suspending solution): 211 % of control
T/C (dose: 80.0 mg/kg/injection, schedule: Q02DX004 (im), vehicle: olive oil, sesame oil, peanut oil): 87 % of control
T/C (dose: 81.0 mg/kg/injection, schedule: Q01DX007 (iv), vehicle: saline): 97 % of control
T/C (dose: 81.0 mg/kg/injection, schedule: Q01DX Z (ip), vehicle: saline): 122 % of control
T/C (dose: 90.0 mg/kg/injection, schedule: Q01DX001 (ip), vehicle: carboxymethylcellulose (CMC)): 244 % of control
T/C (dose: 90.0 mg/kg/injection, schedule: Q01DX001 (ip), vehicle: other): 265 % of control
T/C (dose: 96.0 mg/kg/injection, schedule: Q01DX010 (oral), vehicle: saline): 111 % of control
T/C (dose: 144.0 mg/kg/injection, schedule: Q01DX010 (oral), vehicle: saline): 97 % of control and 119 % of control
T/C (dose: 150.0 mg/kg/injection, schedule: Q01DX Z (oral), vehicle: saline): 101 % of control
T/C (dose: 160.0 mg/kg/injection, schedule: Q01DX001 (im), vehicle: saline): 243 % of control
T/C (dose: 320.0 mg/kg/injection, schedule: Q01DX001 (im), vehicle: saline): 271 % of control
T/C (dose: 576.0 mg/kg/injection, schedule: Q01DX001 (ip), vehicle: saline): 110 % of control
T/C (dose: 576.0 mg/kg/injection, schedule: Q01DX010 (oral), vehicle: saline): 116 % of control
T/C (dose: 600.0 mg/kg/injection, schedule: Q01DX Z (oral), vehicle: saline): 122 % of control
